Laboratory results: patent US20140357713A1, “ANTIMICROBIAL COMPOUNDS AND METHODS OF USE” (NexMed Holdings, Inc., priority 2012, published 2014)
Where two headings read alike, the source gives them in different places.

Key:
pH (Table 1) = format: physicochemical
[1] = Solubility (Sol., Table 1); format: physicochemical
[2] = system: Aspergillus niger (CMCC 98003); assay: Minimum inhibitory concentration (MIC) assay, Example 33; format: cell-based; conditions: Aspergillus niger
Method in brief: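 Broth microdilution MIC per CLSI guidelines in RPMI 1640 with serial 2-fold compound dilutions. Spore suspension from sporulating colonies adjusted to OD530 0.09-0.13, diluted 1:50 as 2× inoculum and added 1:2 to drug wells; plates incubated at 35 °C and MIC read per CLSI.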

[3] = system: Pseudomonas aeruginosa (ATCC 27853); assay: Time kill study, Example 33 (0 to 5 min); format: cell-based; conditions: 1×MIC
Method in brief: (§1)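 Per CLSI guidelines, strain suspensions were mixed 1:1 by volume with compound solution; samples taken at 0 min, 30 sec, 1 min and 5 min were diluted and plated on agar. Colonies were counted after 24 to 48 hrs incubation and viable counts reported as Log10 CFU/mL.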

[4] = system: Staphylococcus aureus (ATCC 29213); assay: Time kill study, Example 33 (0 to 5 min); format: cell-based; conditions: 1×MIC
Method in brief: as §1

[5] = system: Escherichia coli (ATCC 25922); assay: Time kill study, Example 33 (0 to 5 min); format: cell-based; conditions: 1×MIC
Method in brief: as §1

[6] = system: Pseudomonas aeruginosa (ATCC 27853); assay: Minimum inhibitory concentration (MIC) assay, Example 33; format: cell-based; conditions: Pseudomonas aeruginosa
Method in brief: (§2)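 Antibacterial MICs come from CLSI-guided broth microdilution in CAMHB at 35° C, using a McFarland 0.5-standardized inoculum diluted 1:100 before 1:2 addition to drug wells.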

[7] = system: Escherichia coli (ATCC 25922); assay: as above; format: cell-based; conditions: Escherichia coli
Method in brief: as §2

[8] = system: Staphulococcus aureus (ATCC 29213); assay: Minimum inhibitory concentration (MIC) assay, Example 33; format: cell-based, Staphylococcus aureus; conditions: Staphylococcus aureus
Method in brief: as §2

[9] = system: Candida albicans (ATCC 90029); assay: as above; format: cell-based; conditions: Candida albicans
Method in brief: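 Broth microdilution per CLSI guidelines in RPMI 1640; inoculum set to OD530 0.08–0.13, diluted 1:50 then 1:20 to 2× strength and mixed 1:2 with 2-fold serial compound dilutions. Incubated at 35° C; MIC read per CLSI.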

pH (pH (Table 1)): 1.66
Sol. [1]: 51%
MIC ([2]; CMCC98003, Table 19 summary, read-out: MIC): > 12500 µg/mL
MIC ([2]; CMCC98003, n = 1, read-out: MIC Aspergillus niger): > 12500 µg/mL
MIC ([2]; CMCC98003, n = 2, read-out: MIC Aspergillus niger): > 12500 µg/mL
MIC ([6]; ATCC27853, Table 19 summary, read-out: MIC): 6250 µg/mL
MIC ([6]; ATCC27853, n = 1, read-out: MIC P. aeruginosa): 6250 µg/mL
MIC ([6]; ATCC27853, n = 2, read-out: MIC P. aeruginosa): 6250 µg/mL
MIC ([7]; ATCC25922, Table 19 summary of Example 33 and Example 35, read-out: MIC): 3130 µg/mL
MIC ([7]; ATCC25922, n = 1, read-out: MIC E. coli): 3130 µg/mL
MIC ([7]; ATCC25922, n = 2, read-out: MIC E. coli): 3130 µg/mL
melting point: 100 to 106 °C
MIC ([8]; ATCC29213, Table 19 summary, read-out: MIC): 3130 µg/mL
MIC ([8]; ATCC29213, n = 1, read-out: MIC S. aureus): 3130 µg/mL
MIC ([8]; ATCC29213, n = 2, read-out: MIC S. aureus): 3130 µg/mL
MIC ([9]; ATCC90029, Table 19 summary, read-out: MIC): > 12500 µg/mL
MIC ([9]; ATCC90029, n = 1, read-out: MIC Candida albicans): > 12500 µg/mL
MIC ([9]; ATCC90029, n = 2, read-out: MIC Candida albicans): > 12500 µg/mL
SMILES: CCCCCCCCCCCC(C)(C)OC(=O)C(C)N(C)C.Cl (stereo not drawn) [Nex-65, 2-Methyltridecan-2-yl 2-(dimethylamino)propanoate hydrochloride]
Viable counts, Pseudomonas aeruginosa time kill study ([3]; 0.5 min): 5.36 Log10 CFU/mL
Viable counts, Pseudomonas aeruginosa time kill study ([3]; 1 min): 5.52 Log10 CFU/mL
Viable counts, Pseudomonas aeruginosa time kill study ([3]; 5 min): <3.52 Log10 CFU/mL
Viable counts, Pseudomonas aeruginosa time kill study ([3]; time 0): 5.52 Log10 CFU/mL
Viable counts, Staphylococcus aureus time kill study ([4]; 0.5 min): 6.39 Log10 CFU/mL
Viable counts, Staphylococcus aureus time kill study ([4]; 1 min): 6.35 Log10 CFU/mL
Viable counts, Staphylococcus aureus time kill study ([4]; 5 min): 6.17 Log10 CFU/mL
Viable counts, Staphylococcus aureus time kill study ([4]; time 0): 6.34 Log10 CFU/mL
Viable counts, Escherichia coli time kill study ([5]; 0.5 min): 5.72 Log10 CFU/mL
Viable counts, Escherichia coli time kill study ([5]; 1 min): 5.97 Log10 CFU/mL
Viable counts, Escherichia coli time kill study ([5]; 5 min): 4.22 Log10 CFU/mL
Viable counts, Escherichia coli time kill study ([5]; time 0): 5.68 Log10 CFU/mL
